In patent US6432962B1, “Benzophenones as inhibitors of IL-1β and TNF-α” (Leo Pharmaceutical Products Ltd. A/S, priority 2000, dated 2002):

Legend:
[1] = tested on: IL-1β secretion, LPS stimulated peripheral blood mononuclear cells; experiment: Inhibition of IL-1β secretion from LPS stimulated peripheral blood mononuclear cells; type: cell-based; conditions: LPS stimulated human PBMC, 18 hours, ELISA; read-out: Inhibition of cytokines in vitro, median inhibition concentration (IC50), IL-1β
Protocol: (§1) To study the effect of the compound of the present invention in vitro the inhibition of the IL-1β and TNF-α secretion was measured using the following procedure: Cytokine production was measured in the media from lipopolysaccharide (LPS) stimulated peripheral blood mononuclear cells. The mononuclear cells were isolated from human peripheral blood by Lymphoprep® (Nycomed, Norway) fractionation and suspended in RPMI 1640 (growth medium) with foetal calf serum (FCS, 2%), at a concentration of 5×10^5 cells/ml. The cells were incubated in 24-well tissue culture plates in 1 mL aliquots. Test compounds were dissolved in dimethylsulfoxide (DMSO, 10 mM) and were diluted with the medium. Compounds were added to the cells for 30 minutes, then LPS ([…] final concentration) was added. The plates were incubated for 18 hours, and the concentration of IL-1β and TNF-α in the medium was determined by enzyme-linked immunosorbent assays. The median inhibitory concentrations (IC50) of the compounds were calculated.

[2] = tested on: TNF-α secretion, LPS stimulated peripheral blood mononuclear cells; experiment: Inhibition of TNF-α secretion from LPS stimulated peripheral blood mononuclear cells; type: cell-based; conditions: LPS stimulated human PBMC, 18 hours, ELISA; read-out: Inhibition of cytokines in vitro, median inhibition concentration (IC50), TNF-α
Protocol: as §1

[3] = Log P of the tested compounds; type: physicochemical
[4] = tested on: Human polymorphonuclear (PMN) granulocytes, superoxide anion generation; experiment: Inhibition of PMN superoxide secretion (ferricytochrome C reduction); type: cell-based; conditions: human PMN primed with TNF-α, fMLP stimulated; read-out: Inhibition of PMN-superoxide production in vitro, median inhibition concentration (IC50)
Protocol: The compounds of the present invention also show similar activities in the ability to inhibit PMN (polymorphonuclear) superoxide secretion which is also indicative of potentially useful anti-inflammatory drugs. The compounds were tested using the following procedure: Human polymorphonuclear (PMN) granulocytes were isolated from human blood by dextran sedimentation, Lymphoprep® fractionation and hypotonic lysis of contaminating erythrocytes. Superoxide anion generation was measured as the superoxide dismutase inhibitable reduction of ferricytochrome C (Madhu, S. B. et al, Inflammation, 16, 241, (1992)). The cells were suspended in Hanks' balanced salt solution, and incubated for 10 minutes at 37° C. with test compounds. The cells were primed by the addition of TNF-α (3 ng/mL final concentration) for 10 minutes, and then ferricytochrome C, (final concentration 750 μg/mL), bovine serum albumin (BSA, final concentration 1 mg/mL) and formylmethionyl-leucyl-phenylalanine (fMLP, final concentration 10^-7 M) were added for 3 minutes. The cells were chilled on ice, and were spun down. The optical densities in the cell-free supernatant was measured in a spectrophotometer. The median inhibitory concentration (IC50) of the compounds was calculated.

p38α MAP kinase = molecular target: T1, p38α MAP kinase (Homo sapiens, UniProt Q16539); experiment: p38α MAP kinase assay; type: biochemical; conditions: immunoprecipitated FLAG-p38α from COS-1 cells, GST-ATF-2 substrate; read-out: IC50 values for the inhibition of p38α MAP kinase, mean concentration
T1 construct: made in house; host or cells: COS-1 cells (transient co-transfection, anti-FLAG M2 immunoprecipitation)
T1 sequence (Q16539 whole entry): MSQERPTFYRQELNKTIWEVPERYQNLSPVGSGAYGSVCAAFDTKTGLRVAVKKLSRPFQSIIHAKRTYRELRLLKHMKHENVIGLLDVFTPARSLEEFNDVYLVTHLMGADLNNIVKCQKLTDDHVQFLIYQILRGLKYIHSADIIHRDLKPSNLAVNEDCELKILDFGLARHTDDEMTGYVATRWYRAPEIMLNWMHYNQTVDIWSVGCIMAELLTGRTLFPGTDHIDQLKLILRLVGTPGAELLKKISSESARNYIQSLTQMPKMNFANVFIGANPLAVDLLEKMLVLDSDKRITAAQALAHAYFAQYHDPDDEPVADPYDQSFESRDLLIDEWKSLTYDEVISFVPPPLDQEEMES
Protocol: Transient Expression of COS-1 Cells
On day one COS-1 cells were seeded in 143 cm^2 petridish with a density of 2×10^4 cells/cm^2 in growth medium. At day 2 the cells were co-transfected with 5 μg (total) of experimental plasmid DNA, expressing the FLAG-p38α and FLAG-MKK6(EE). The plasmids were introduced into the COS-1 cells in serum-free medium using DOTAP™ (Boehringer-Mannheim, Mannheim, Germany). Plasmid DNA was prepared and purified using the QIAGEN EndoToxin-free Maxiprep-500 kit (Hilden, Germany). Briefly, DNA and DOTAP™ were mixed for exactly 15 min. at 37° C. in the CO2 incubator. The transfection-mixture was hereafter transferred to a 15-mL falcon-tube and transfection-medium (DMEM with L-Glutamine and Pen./Strep. but without serum) was added to the transfection-mixture, followed by addition to the cell-monolayer. After 4 hours of incubation with DOTAP™ and plasmids, the medium containing double amount of serum was added to the cells bringing the final concentration of serum up to 10%. […]
The reaction was allowed to proceed for 30 min. at 30° C., and it was stopped by adding 40 μl of 2×SDS-sample buffer to the kinase reaction. […] The dried SDS-PAGE gel was exposed to a Phospho-Imager screen and the radioactive PHAS-1 bands were quantified by the STORM860 Phospho-Imager (Molecular Dynamics, Sunnyvale, Calif., USA) using the ImageQuaNT software.

Row | IC50 [1] [nM] | IC50 [2] [nM] | logP [3] | IC50 [4] [nM] | IC50 (p38α MAP kinase) [nM] | Log P [3] | Structure (SMILES)
1 | 31 | 5 | 4.2 | 15 | 12.8 | – | Cc1ccccc1C(=O)c1ccc(Nc2cncc3ccccc23)cc1Cl [Compound 114, 2-Chloro-4-(4-isoquinolylamino)-2′-methylbenzophenone]
2 | 15.8 | 3.1 | – | 12.6 | – | 4.4 | Cc1ccccc1C(=O)c1ccc(Nc2c[n+]([O-])cc3ccccc23)cc1Cl [Compound 128, 2-Chloro-4((4-isoquinolyl-N-oxide)amino)-2′-methylbenzophenone]
3 | 13 | 7.1 | 4.9 | 5 | – | – | Cc1ccccc1C(=O)c1ccc(Nc2ccccc2N)cc1Cl [Ref. comp., 4-(2-aminophenylamino)-2-chloro-2′-methylbenzophenone, reference compound]
